Results reported in ChEMBL document CHEMBL1909046, “DrugMatrix in vitro pharmacology data”.

What was measured:
[1] = target: Kappa-type opioid receptor (Homo sapiens, UniProt P41145); assay: DRUGMATRIX: Opiate kappa (OP2, KOP) radioligand binding (ligand: [3H] Diprenorphine); type: cell membranes, HEK293, Membrane; settings: Not Active = under 50% inhibition at 10 µM
D(3) dopamine receptor = D(3) dopamine receptor (Homo sapiens, UniProt P35462); assay: DRUGMATRIX: Dopamine D3 radioligand binding (ligand: [3H] Spiperone); type: cell membranes, CHO, Membrane; settings: for Ki: read-out: Ki
[2] = target: T1, Neuropeptide Y receptor type 2 (Homo sapiens, UniProt P49146); type: cell membranes, Membrane; settings: kan-ts; further: in other assays of this panel Not Active means under 50% inhibition at 10 µM
T1 sequence (P49146 whole entry): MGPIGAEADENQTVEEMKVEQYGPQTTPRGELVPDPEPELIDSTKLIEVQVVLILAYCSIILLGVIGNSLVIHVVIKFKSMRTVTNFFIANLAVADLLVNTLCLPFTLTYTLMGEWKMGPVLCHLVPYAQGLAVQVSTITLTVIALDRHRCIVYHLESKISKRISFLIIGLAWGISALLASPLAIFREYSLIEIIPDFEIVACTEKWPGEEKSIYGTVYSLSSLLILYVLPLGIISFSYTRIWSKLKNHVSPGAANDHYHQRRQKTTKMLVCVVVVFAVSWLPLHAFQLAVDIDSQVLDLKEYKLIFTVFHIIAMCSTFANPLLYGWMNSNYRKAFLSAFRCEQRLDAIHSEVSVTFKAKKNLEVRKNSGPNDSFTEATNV

[3] = target: T2, 5-hydroxytryptamine receptor 1A (Rattus norvegicus, UniProt P19327); type: cell membranes, CHO-K1, Membrane; settings: cho-k1; further: in other assays of this panel Not Active means under 50% inhibition at 10 µM
T2 sequence (P19327 whole entry): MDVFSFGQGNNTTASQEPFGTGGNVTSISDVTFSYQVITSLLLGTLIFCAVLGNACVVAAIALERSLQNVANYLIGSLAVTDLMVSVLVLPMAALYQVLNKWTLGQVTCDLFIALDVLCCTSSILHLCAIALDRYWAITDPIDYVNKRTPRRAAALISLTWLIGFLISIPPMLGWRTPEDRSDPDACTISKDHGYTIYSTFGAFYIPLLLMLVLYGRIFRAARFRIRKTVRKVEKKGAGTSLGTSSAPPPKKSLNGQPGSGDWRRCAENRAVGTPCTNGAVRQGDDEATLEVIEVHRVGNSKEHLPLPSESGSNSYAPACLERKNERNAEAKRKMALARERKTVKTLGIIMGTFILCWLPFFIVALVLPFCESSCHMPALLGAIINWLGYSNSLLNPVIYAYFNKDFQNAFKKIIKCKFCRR

[4] = DRUGMATRIX: Interleukin IL-1 radioligand binding (ligand: [125I] interleukin 1beta); type: cell membranes, Membrane; settings: nih3t3; Not Active = under 50% inhibition at 10 µM
[5] = DRUGMATRIX: Leukotriene, BLT (LTB4) radioligand binding (ligand: [3H]LTB4); type: cell membranes, Membrane; settings: u-937; Not Active = under 50% inhibition at 10 µM

Chain of D(3) dopamine receptor (P35462 whole entry): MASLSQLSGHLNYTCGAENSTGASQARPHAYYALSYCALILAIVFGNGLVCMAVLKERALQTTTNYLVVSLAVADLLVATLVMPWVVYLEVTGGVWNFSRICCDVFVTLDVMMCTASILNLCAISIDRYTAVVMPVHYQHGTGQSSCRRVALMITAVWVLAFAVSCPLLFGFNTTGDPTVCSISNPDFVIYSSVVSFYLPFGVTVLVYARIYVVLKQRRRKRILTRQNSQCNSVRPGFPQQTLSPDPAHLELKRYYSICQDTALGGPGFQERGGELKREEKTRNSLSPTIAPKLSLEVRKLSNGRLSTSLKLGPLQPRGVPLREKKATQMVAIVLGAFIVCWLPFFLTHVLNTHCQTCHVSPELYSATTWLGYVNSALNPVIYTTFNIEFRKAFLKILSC
Chain of Kappa-type opioid receptor (P41145 whole entry): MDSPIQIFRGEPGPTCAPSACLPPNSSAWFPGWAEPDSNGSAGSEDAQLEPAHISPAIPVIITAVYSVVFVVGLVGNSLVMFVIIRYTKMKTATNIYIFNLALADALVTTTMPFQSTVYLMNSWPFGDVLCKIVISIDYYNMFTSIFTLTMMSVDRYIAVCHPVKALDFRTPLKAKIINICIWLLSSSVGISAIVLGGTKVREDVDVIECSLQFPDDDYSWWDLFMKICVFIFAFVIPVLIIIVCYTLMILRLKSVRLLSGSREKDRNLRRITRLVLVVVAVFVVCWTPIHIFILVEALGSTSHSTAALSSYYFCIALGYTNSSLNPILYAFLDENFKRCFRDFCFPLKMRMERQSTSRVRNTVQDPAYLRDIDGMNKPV

C[C@]12C/C(=C/O)C(=O)C[C@@H]1CC[C@@H]1[C@@H]2CC[C@@]2(C)[C@H]1CC[C@]2(C)O [OXYMETHOLONE]
Not Active: IC50 ([1]; hek293) | IC50 (D(3) dopamine receptor; cho) | IC50 [2] | IC50 [3] | IC50 [4] | Ki [4] | IC50 [5] | Ki [5]

C[C@@H]1CC[C@H]2[C@@H](C)C(=O)O[C@@H]3O[C@@]4(C)CC[C@@H]1[C@]32OO4 [ARTEMISININ]
Not Active: IC50 ([1]; hek293) | IC50 (D(3) dopamine receptor; cho) | IC50 [2] | IC50 [3] | IC50 [4] | Ki [4] | IC50 [5] | Ki [5]

CCOC(=O)[C@H](CCc1ccccc1)N[C@@H](C)C(=O)N1Cc2ccccc2C[C@H]1C(=O)O
Not Active: IC50 ([1]; hek293) | IC50 (D(3) dopamine receptor; cho) | IC50 [2] | IC50 [3] | IC50 [4] | Ki [4] | IC50 [5] | Ki [5]

C=C1/C(=C\C=C2/CCC[C@]3(C)[C@@H]([C@H](C)CCCC(C)C)CC[C@@H]23)C[C@@H](O)C[C@@H]1O [ALFACALCIDOL]
Not Active: IC50 ([1]; hek293) | IC50 (D(3) dopamine receptor; cho) | IC50 [2] | IC50 [3] | IC50 [4] | Ki [4] | IC50 [5] | Ki [5]

CCCCC1C(=O)N(c2ccccc2)N(c2ccccc2)C1=O [PHENYLBUTAZONE]
Not Active: IC50 ([1]; hek293) | IC50 (D(3) dopamine receptor; cho) | IC50 [2] | IC50 [3] | IC50 [4] | Ki [4] | IC50 [5] | Ki [5]

Cc1cn[nH]c1 [FOMEPIZOLE]
Not Active: IC50 ([1]; hek293) | IC50 (D(3) dopamine receptor; cho) | IC50 [2] | IC50 [3] | IC50 [4] | Ki [4] | IC50 [5] | Ki [5]

COc1ccccc1OCC(O)CO (centres undefined) [GUAIFENESIN]
Not Active: IC50 ([1]; hek293) | IC50 (D(3) dopamine receptor; cho) | IC50 [2] | IC50 [3] | IC50 [4] | Ki [4] | IC50 [5] | Ki [5]

[N-]=[N+]=CC(=O)OC[C@H](N)C(=O)O [AZASERINE]
Not Active: IC50 ([1]; hek293) | IC50 (D(3) dopamine receptor; cho) | IC50 [2] | IC50 [3] | IC50 [4] | Ki [4] | IC50 [5] | Ki [5]

N[C@@H](Cc1ccc(F)cc1)C(=O)O
Not Active: IC50 ([1]; hek293) | IC50 (D(3) dopamine receptor; cho) | IC50 [2] | IC50 [3] | IC50 [4] | Ki [4] | IC50 [5] | Ki [5]

O=C(/C=C/c1ccc(O)c(O)c1)OCCc1ccccc1 [CAFFEIC ACID PHENETHYL ESTER]
Not Active: IC50 ([1]; hek293) | IC50 (D(3) dopamine receptor; cho) | IC50 [2] | IC50 [3] | IC50 [4] | Ki [4] | IC50 [5] | Ki [5]

CCOC(=O)C1=C(C)NC(C)=C(C(=O)OC)C1c1cccc(Cl)c1Cl (centres undefined) [FELODIPINE]
Not Active: IC50 ([1]; hek293) | IC50 (D(3) dopamine receptor; cho) | IC50 [2] | IC50 [3] | IC50 [4] | Ki [4] | IC50 [5] | Ki [5]

OCCO [ETHYLENE GLYCOL]
Not Active: IC50 ([1]; hek293) | IC50 (D(3) dopamine receptor; cho) | IC50 [2] | IC50 [3] | IC50 [4] | Ki [4] | IC50 [5] | Ki [5]

CCC[C@@H]1C[C@@H](C(=O)N[C@@H]([C@H]2O[C@H](SC)[C@H](O)[C@@H](O)[C@H]2O)[C@H](C)Cl)N(C)C1 [CLINDAMYCIN]
Not Active: IC50 ([1]; hek293) | IC50 (D(3) dopamine receptor; cho) | IC50 [2] | IC50 [3] | IC50 [4] | Ki [4] | IC50 [5] | Ki [5]

C[C@H]([C@](O)(Cn1cncn1)c1ccc(F)cc1F)S(C)(=O)=O [GENACONAZOLE]
Not Active: IC50 ([1]; hek293) | IC50 (D(3) dopamine receptor; cho) | IC50 [2] | IC50 [3] | IC50 [4] | Ki [4] | IC50 [5] | Ki [5]

CC[C@H](C)C(=O)O[C@H]1C[C@H](O)C=C2C=C[C@H](C)[C@H](CC[C@@H](O)C[C@@H](O)CC(=O)O)[C@H]21 [PRAVASTATIN]
Not Active: IC50 ([1]; hek293) | IC50 (D(3) dopamine receptor; cho) | IC50 [2] | IC50 [3] | IC50 [4] | Ki [4] | IC50 [5] | Ki [5]

OCCN1CCN(CCCN2c3ccccc3Sc3ccc(Cl)cc32)CC1 [PERPHENAZINE]
Not Active: IC50 ([1]; hek293) | IC50 (D(3) dopamine receptor; cho) | IC50 [2] | IC50 [3] | IC50 [4] | Ki [4] | IC50 [5] | Ki [5]

CC(C)(C)c1ccc(S(=O)(=O)/C=C/C#N)cc1 [BAY-11-7085]
1.17 µM: Ki (D(3) dopamine receptor)
Not Active: IC50 ([1]; hek293) | IC50 [2] | IC50 [3] | IC50 [4] | Ki [4] | IC50 [5] | Ki [5]
3.46 µM: IC50 (D(3) dopamine receptor; read-out: IC50)

CCC(=O)O[C@H]1[C@H](O[C@@H]2[C@@H](C)[C@H](O[C@H]3C[C@@](C)(OC)[C@@H](O)[C@H](C)O3)[C@@H](C)C(=O)O[C@H](CC)[C@@](C)(O)[C@H](O)[C@@H](C)C(=O)[C@H](C)C[C@@]2(C)O)O[C@H](C)C[C@@H]1N(C)C [ERYTHROMYCIN PROPIONATE]
Not Active: IC50 ([1]; hek293) | IC50 (D(3) dopamine receptor; cho) | IC50 [2] | IC50 [3] | IC50 [4] | Ki [4] | IC50 [5] | Ki [5]

C#C[C@]1(O)CC[C@H]2[C@@H]3CCc4cc(O)ccc4[C@H]3CC[C@@]21C [ETHINYL ESTRADIOL]
25.9 µM: IC50 ([1]; read-out: IC50)
10.4 µM: Ki [1]
Not Active: IC50 (D(3) dopamine receptor; cho) | IC50 [2] | IC50 [3] | IC50 [4] | Ki [4] | IC50 [5] | Ki [5]

Nc1nc(Cl)nc2c1ncn2[C@H]1C[C@H](O)[C@@H](CO)O1 [CLADRIBINE]
Not Active: IC50 ([1]; hek293) | IC50 (D(3) dopamine receptor; cho) | IC50 [2] | IC50 [3] | IC50 [4] | Ki [4] | IC50 [5] | Ki [5]

CC(C)(Sc1cc(C(C)(C)C)c(O)c(C(C)(C)C)c1)Sc1cc(C(C)(C)C)c(O)c(C(C)(C)C)c1 [PROBUCOL]
Not Active: IC50 ([1]; hek293) | IC50 (D(3) dopamine receptor; cho) | IC50 [2] | IC50 [3] | IC50 [4] | Ki [4] | IC50 [5] | Ki [5]

CC(CCc1ccc(O)cc1)NCCc1ccc(O)c(O)c1 (centres undefined) [DOBUTAMINE]
4.99 µM: IC50 (D(3) dopamine receptor; read-out: IC50)
Not Active: IC50 ([1]; hek293) | IC50 [2] | IC50 [3] | IC50 [4] | Ki [4] | IC50 [5] | Ki [5]
1.69 µM: Ki (D(3) dopamine receptor)

CS(=O)(=O)OCCCCOS(C)(=O)=O [BUSULFAN]
Not Active: IC50 ([1]; hek293) | IC50 (D(3) dopamine receptor; cho) | IC50 [2] | IC50 [3] | IC50 [4] | Ki [4] | IC50 [5] | Ki [5]

CC[C@H]1OC(=O)[C@H](C)[C@@H](O[C@H]2C[C@@](C)(OC)[C@@H](O)[C@H](C)O2)[C@H](C)[C@@H](O[C@@H]2O[C@H](C)C[C@H](N(C)C)[C@H]2O)[C@](C)(O)C[C@@H](C)CN(C)[C@H](C)[C@@H](O)[C@]1(C)O [AZITHROMYCIN]
Not Active: IC50 ([1]; hek293) | IC50 (D(3) dopamine receptor; cho) | IC50 [2] | IC50 [3] | IC50 [4] | Ki [4] | IC50 [5] | Ki [5]

CC(=O)OCC(CCn1cnc2cnc(N)nc21)COC(C)=O [FAMCICLOVIR]
Not Active: IC50 ([1]; hek293) | IC50 (D(3) dopamine receptor; cho) | IC50 [2] | IC50 [3] | IC50 [4] | Ki [4] | IC50 [5] | Ki [5]

C/C=C\c1ccc(O)c(OC)c1 [ISOEUGENOL]
Not Active: IC50 ([1]; hek293) | IC50 (D(3) dopamine receptor; cho) | IC50 [2] | IC50 [3] | IC50 [4] | Ki [4] | IC50 [5] | Ki [5]

O=C(c1ccccc1Cl)N1CCC(Cc2ccccc2)CC1
Not Active: IC50 ([1]; hek293) | IC50 (D(3) dopamine receptor; cho) | IC50 [2] | IC50 [3] | IC50 [4] | Ki [4] | IC50 [5] | Ki [5]
